Series [1] can be described thus: in vivo. The following applies: rat, sc, 3 mg/kg/day.
For series [2] the following is noted: Gao et al., Journal of Polymer Research 2011; cited from earlier work.
A short description of series [3]: in vivo. The following applies: minipig, topical or ocular, 4 % cream, BID.
A short description of series [4]: solubility of the active ingredient in solvents. It counts as physicochemical. The procedure: The solubility of the active ingredient in different solvents was determined. […] The following formulations were prepared with 5%, 10%, 15% and 20% MCT (Formulations 15-18). Two formulations (Formulations 19 and 20) were also prepared where Polawax (a proprietary blend of cetostearyl alcohol and emulsifiers) was replaced with cetostearyl alcohol and additional emulsifier.

The conditions of series [5]: Dermal 4% cream, BID, Minipig, 13 weeks.
The next series deals with AhR pathway. Particulars: intestinal human colon adenocarcinoma.
A short description of series [6]: 28 day twice daily topical administration, toxicokinetics, dermal irritancy and toxicity. It counts as in vivo, Gottingen minipigs. The following applies: for concentration at 29 day: Skin Concentration. The procedure:
Following dose application on each dosing day, the dose sites were semi-occluded for approximately 20±1 hours from the first dose and then gently washed before the next dose was applied.

Marks after values point to notes of the source that are not given here.

This is an account of results in patent US11612573B2, “Topical pharmaceutical compositions” (Dermavant Sciences GmbH, priority 2015, dated 2023).

One may read the Cmax as the maximum level reached in the sampled fluid or tissue. Broadly, the AUC is the area under the concentration-time curve, a measure of exposure. Read a high AUC as high exposure. As usually defined, the Tmax is the time at which the peak concentration occurs. Usually NOAEL stands for the highest tested level that showed no adverse finding. One may read the AUC(0-t) as exposure summed from dosing to a finite time, without extrapolation to infinity. High values mean high exposure, low ones low exposure. Take `CC(C)c1c(O)cc(/C=C/c2ccccc2)cc1O` [3,5-Dihydroxy-4-isopropyl-trans-stilbene]: the values for the Cmax in “in vivo [1]” and in the series “in vivo [3]” were 0.0316 µg/mL and 0.00713 µg/mL, respectively. In addition, the “sensitivity to oxidation and photo degradation” value in series [2] is “sensitive to oxidation and photo degradation”. This molecule also returned an AUC at 13 weeks in the series “in vivo [3]” of 0.099 µg·h/mL. For the same molecule, in series [4], the “solubility in medium chain triglycerides (MCT)” value is given as “good solubility”. For the same molecule, in series [4], the solubility in water entry is listed as “not soluble”. The “Cmax NOAEL” value in series [5] is given as 7.13* ng/mL. Further, the “activity on the AhR pathway” value with AhR pathway is recorded as “activator”. For the same molecule, in series [6] (28 days), the “survival to scheduled necropsy” value is on record as “All animals survived”. Moreover, the time to peak (Tmax) in series [6] (both sexes, Gottingen, minipig, in vivo, 60 mg/kg/day) fell in the range of 1 to 3 h. Besides, in series [6] (both sexes, Gottingen, minipig, in vivo, topical or ocular, highest dose tested, 28 days, read-out: NOAEL for dermal irritation or systemic toxicity), the no observed adverse effect level (NOAEL) at 28 days came out at 60 mg/kg/day. Further, the concentration at 29 day was determined as 2540 ng/g in series [6] (female, Gottingen, minipig, 10 mg/kg/day, Epidermis/Upper Dermis); 2270 ng/g in series [6] (female, Gottingen, minipig, 20 mg/kg/day, Epidermis/Upper Dermis); 305 ng/g in series [6] (female, Gottingen, minipig, 20 mg/kg/day, Lower Dermis); 6530 ng/g in series [6] (female, Gottingen, minipig, 60 mg/kg/day, Epidermis/Upper Dermis); 3040 ng/g in series [6] (female, Gottingen, minipig, 60 mg/kg/day, Lower Dermis); 4830 ng/g in series [6] (male, Gottingen, minipig, 10 mg/kg/day, Epidermis/Upper Dermis). Moreover, the concentration at 29 day in series [6] (male, Gottingen, minipig, 10 mg/kg/day, Lower Dermis) was 166 ng/g; in series [6] (male, Gottingen, minipig, 20 mg/kg/day, Epidermis/Upper Dermis), 3950 ng/g; in series [6] (male, Gottingen, minipig, 20 mg/kg/day, Lower Dermis) it was 615 ng/g; in series [6] (male, Gottingen, minipig, 60 mg/kg/day, Epidermis/Upper Dermis), 10000 ng/g; in series [6] (male, Gottingen, minipig, 60 mg/kg/day, Lower Dermis), 3660 ng/g. The area under the curve AUC(0-t) in series [6] (female, Gottingen, minipig, in vivo, topical or ocular, 60 mg/kg/day) stood at 0.00484 µg·h/mL. Further, in series [6] (minipig, in vivo, 60 mg/kg/day), the “dermal irritation at the dose site” value is listed as “no test article-related dermal irritation”.
